In PMC7994318, “Cancer-associated cells release citrate to support tumour metastatic progression” (Life Science Alliance, 2021):

Target: T1, pmCiC (plasma membrane citrate transporter) (Homo sapiens, UniProt P53007)
T1 construct: gene SLC25A1; His-tagged pmCiC expressed in Sf9 cells, solubilized in dodecylmaltoside and purified by Ni-NTA
Test: Trp fluorescence quenching titration of purified protein
Assay type: binding

T1 sequence (P53007 14-311): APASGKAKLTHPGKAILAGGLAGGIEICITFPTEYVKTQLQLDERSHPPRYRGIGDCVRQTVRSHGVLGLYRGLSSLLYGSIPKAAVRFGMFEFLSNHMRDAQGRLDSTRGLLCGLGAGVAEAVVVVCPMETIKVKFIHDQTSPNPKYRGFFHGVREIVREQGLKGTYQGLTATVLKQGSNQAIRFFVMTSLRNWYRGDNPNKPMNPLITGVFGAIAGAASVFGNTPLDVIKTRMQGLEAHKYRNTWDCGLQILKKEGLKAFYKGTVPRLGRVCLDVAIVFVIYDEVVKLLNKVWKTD

Q: `O=C(O)CC(O)(CC(=O)O)C(=O)O` [citrate] was tested. Which Kd did it give?
A: 16 mM
